Measurements: ChEMBL document CHEMBL5034023, “Development of Multifunctional and Orally Active Cyclic Peptide Agonists of Opioid/Neuropeptide FF Receptors that Produce Potent, Long-Lasting, and Peripherally Restricted Antinociception with Diminished Side Effects” (J Med Chem, 2021)
Active and inactive are the calls of the source. No cut-off for these calls is given here. Bridge positions count the residues as written; N and C are the ends. Square brackets hold non-standard residues; d marks the D form. Peptide text beside a SMILES is read from it. NMeF = CN[C@@H](Cc1ccccc1)C(=O)O; dDap = NC[C@@H](N)C(=O)O

Legend:
[1] = target: T1, Neuropeptide FF receptor 1 (Homo sapiens, UniProt Q9GZQ6); assay: (§1) Agonist activity at NPFF1R (unknown origin) expressed in HEK293-A cells assessed as inhibition of forskolin-induced cAMP accumulation preincubated for 30 mins in presence of 3-isobutyl-1-methylxanthine followed by forskolin and compound addition by competitive PKA binding assay; assay type: functional, cell-based
[2] = system: Mus musculus; assay: Antinociceptive activity against Kunming mouse model of thermal-induced nociception assessed as maximum possible effect at 90.1 nmol/kg, po measured after 60 min by tail flick test relative to control; assay type: functional; details: 1 h
[3] = target: T2, Neuropeptide FF receptor 2 (Homo sapiens, UniProt Q9Y5X5); assay: as §1, with “NPFF2R” for “NPFF1R”, “accumulation by measuring maximal efficacy” for “accumulation”, “assay relative to control” for “assay”; assay type: functional, cell-based; details: filed as agonist
[4] = target: T1, Neuropeptide FF receptor 1; assay: as §1, with “accumulation by measuring maximal efficacy” for “accumulation”, “assay relative to control” for “assay”; assay type: functional, cell-based; details: filed as agonist
[5] = Metabolic stability in mouse plasma assessed as degradation half life at 0.01 M measured up to 360 mins; assay type: ADME, cell-free
[6] = system: Mus musculus; assay: Antinociceptive activity against Kunming mouse model of thermal-induced nociception assessed as maximum possible effect at 90.1 nmol/kg, po measured after 30 min by tail flick test relative to control; assay type: functional; details: 0.5 h
[7] = system: Mus musculus; assay: Potency index, ratio of test compound ED50 to DN-9 ED50 for antinociceptive activity against Kunming mouse model of thermal-induced nociception assessed as peripheral analgesia administered subcutaneously by tail-flick test; assay type: functional
[8] = target: T3, Delta-type opioid receptor (Homo sapiens, UniProt P41143); assay: Agonist activity at DOR (unknown origin) expressed in HEK293-A cells assessed as inhibition of forskolin-induced cAMP accumulation preincubated for 30 mins in presence of 3-isobutyl-1-methylxanthine followed by forskolin and compound addition by competitive PKA binding assay; assay type: functional, cell-based
[9] = target: T2, Neuropeptide FF receptor 2; assay: Agonist activity at NPFF2R (unknown origin) expressed in HEK293-A cells assessed as inhibition of forskolin-induced cAMP accumulation preincubated for 30 mins in presence of 3-isobutyl-1-methylxanthine followed by forskolin and compound addition by competitive PKA binding assay; assay type: functional, cell-based
[10] = target: T3, Delta-type opioid receptor; assay: Agonist activity at DOR (unknown origin) expressed in HEK293-A cells assessed as inhibition of forskolin-induced cAMP accumulation preincubated for 30 mins in presence of 3-isobutyl-1-methylxanthine followed by forskolin and compound addition by competitive PKA binding assay relative to control; assay type: functional, cell-based; details: filed as agonist
[11] = system: Mus musculus; assay: Antinociceptive activity in Kunming mouse assessed as analgesic tolerance administered subcutaneously once daily for 8 days by tail flick test; assay type: functional, organism-based; details: time 8.0 day
[12] = system: Mus musculus; assay: Antinociceptive activity against Kunming mouse model of thermal-induced nociception assessed as maximum possible effect at 90.1 nmol/kg, po measured after 20 min by tail flick test relative to control; assay type: functional
[13] = system: Mus musculus; assay: Antinociceptive activity against Kunming mouse model of thermal-induced nociception assessed as duration of analgesic effect administered subcutaneously by tail-flick test; assay type: functional
[14] = system: Mus musculus; assay: Antinociceptive activity against Kunming mouse model of thermal-induced nociception assessed as peripheral analgesia administered subcutaneously by tail-flick test; assay type: functional; details: sc
[15] = target: Kappa-type opioid receptor (Homo sapiens, UniProt P41145); assay type: functional, cell-based, HEK293-A
[16] = target: Mu-type opioid receptor (Homo sapiens, UniProt P35372)
Sequence of Mu-type opioid receptor (P35372 whole entry): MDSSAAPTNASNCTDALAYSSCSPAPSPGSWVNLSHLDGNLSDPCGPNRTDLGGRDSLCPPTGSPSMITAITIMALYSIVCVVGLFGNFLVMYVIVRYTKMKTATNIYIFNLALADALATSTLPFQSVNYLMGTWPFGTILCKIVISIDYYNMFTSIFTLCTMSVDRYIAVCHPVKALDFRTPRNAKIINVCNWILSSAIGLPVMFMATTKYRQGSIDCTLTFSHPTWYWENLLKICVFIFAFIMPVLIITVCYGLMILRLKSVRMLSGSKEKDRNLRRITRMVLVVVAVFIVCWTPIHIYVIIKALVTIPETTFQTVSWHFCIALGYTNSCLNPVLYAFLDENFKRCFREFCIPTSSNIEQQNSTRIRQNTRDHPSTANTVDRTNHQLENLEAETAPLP

T2 sequence (Q9Y5X5 whole entry): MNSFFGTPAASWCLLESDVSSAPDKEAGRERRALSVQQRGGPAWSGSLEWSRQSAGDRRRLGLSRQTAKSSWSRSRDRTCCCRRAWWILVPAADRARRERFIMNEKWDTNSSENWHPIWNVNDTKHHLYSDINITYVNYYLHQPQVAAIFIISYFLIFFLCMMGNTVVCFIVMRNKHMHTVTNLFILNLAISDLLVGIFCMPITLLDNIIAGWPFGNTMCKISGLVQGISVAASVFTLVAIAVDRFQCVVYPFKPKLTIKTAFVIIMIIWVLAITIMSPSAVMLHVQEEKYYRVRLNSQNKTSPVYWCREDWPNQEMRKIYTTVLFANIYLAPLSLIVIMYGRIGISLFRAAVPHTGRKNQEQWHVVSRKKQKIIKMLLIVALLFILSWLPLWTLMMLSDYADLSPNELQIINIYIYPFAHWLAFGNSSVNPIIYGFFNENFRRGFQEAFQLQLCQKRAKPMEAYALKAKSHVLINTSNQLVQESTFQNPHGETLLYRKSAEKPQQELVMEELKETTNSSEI
T3 sequence (P41143 whole entry): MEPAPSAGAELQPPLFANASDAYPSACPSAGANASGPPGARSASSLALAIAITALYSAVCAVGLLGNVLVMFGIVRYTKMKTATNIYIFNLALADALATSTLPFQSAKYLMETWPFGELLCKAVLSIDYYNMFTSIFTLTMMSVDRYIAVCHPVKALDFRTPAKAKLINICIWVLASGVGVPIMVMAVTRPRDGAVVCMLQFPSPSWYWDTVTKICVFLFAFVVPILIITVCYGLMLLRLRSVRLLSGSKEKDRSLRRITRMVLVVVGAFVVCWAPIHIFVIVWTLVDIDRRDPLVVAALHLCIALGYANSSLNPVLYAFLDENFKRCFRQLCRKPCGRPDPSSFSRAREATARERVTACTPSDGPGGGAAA
T1 sequence (Q9GZQ6 whole entry): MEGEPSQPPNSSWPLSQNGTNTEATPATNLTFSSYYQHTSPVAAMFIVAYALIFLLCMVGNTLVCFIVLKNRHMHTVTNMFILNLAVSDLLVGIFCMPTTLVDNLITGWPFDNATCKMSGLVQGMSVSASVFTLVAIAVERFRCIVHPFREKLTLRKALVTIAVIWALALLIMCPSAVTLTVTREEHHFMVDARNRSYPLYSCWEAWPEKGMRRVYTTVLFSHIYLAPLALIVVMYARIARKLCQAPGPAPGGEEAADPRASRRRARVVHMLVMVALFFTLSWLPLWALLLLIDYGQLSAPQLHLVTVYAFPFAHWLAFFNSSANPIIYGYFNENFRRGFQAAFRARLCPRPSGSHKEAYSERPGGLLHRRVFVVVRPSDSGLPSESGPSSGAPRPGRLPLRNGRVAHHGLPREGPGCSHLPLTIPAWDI
Sequence of Kappa-type opioid receptor (P41145 whole entry): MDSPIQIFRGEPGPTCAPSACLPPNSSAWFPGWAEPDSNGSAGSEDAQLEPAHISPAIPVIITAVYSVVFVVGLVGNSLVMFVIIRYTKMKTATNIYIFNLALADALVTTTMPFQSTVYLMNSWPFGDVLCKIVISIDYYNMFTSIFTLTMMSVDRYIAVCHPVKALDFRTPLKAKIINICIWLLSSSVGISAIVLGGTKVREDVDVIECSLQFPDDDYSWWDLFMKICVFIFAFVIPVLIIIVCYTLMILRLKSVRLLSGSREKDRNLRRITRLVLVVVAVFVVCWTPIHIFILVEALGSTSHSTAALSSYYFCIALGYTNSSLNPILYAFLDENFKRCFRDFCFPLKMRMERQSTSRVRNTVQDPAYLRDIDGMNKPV

SMILES: CN1C(=O)CNC(=O)[C@H](NC(=O)[C@@H](N)Cc2ccc(O)cc2)CNC(=O)C[C@@H](C(=O)N2CCC[C@H]2C(=O)N[C@@H](CCC(N)=O)C(=O)N[C@@H](CCCNC(=N)N)C(=O)N[C@@H](Cc2ccccc2)C(N)=O)NC(=O)[C@@H]1Cc1ccccc1 (H-Y[dDap]G[NMeF]DPQRF-NH2; lactam 2-5)
- EC50 [1]: 0.0901 µM
- MPE [2]: 80.8%
- Emax [3]: 63.9%
- Emax [4]: 47.5%
- half-life at 10000 µM [5]: 1.09 h
- MPE [6]: 97.5%
- Ratio ED50 [7]: 16
- EC50 [8]: 0.374 µM
- EC50 ([9]; read-out: EC50): 0.349 µM
- EC50 ([9]; read-out: pEC50 (converted)): 0.355 µM
- Emax [10]: 48%
- Activity [11]: inactive
- MPE [12]: 93.2%
- Tlast [13]: 240 min
- ED50 [14]: 0.0135 µmol/kg
- EC50 [15]: 0.136 µM
- EC50 [16]: 0.238 µM
